Reference: article PMC9090415, “Discovery of small molecule inhibitors of Plasmodium falciparum apicoplast DNA polymerase” (Journal of Enzyme Inhibition and Medicinal Chemistry, 2022)

Target: T1, bacteriophage T4 DNA polymerase (Enterobacteria phage T4, UniProt P04415)
T1 construct: made in house
T1 sequence (P04415 1-898): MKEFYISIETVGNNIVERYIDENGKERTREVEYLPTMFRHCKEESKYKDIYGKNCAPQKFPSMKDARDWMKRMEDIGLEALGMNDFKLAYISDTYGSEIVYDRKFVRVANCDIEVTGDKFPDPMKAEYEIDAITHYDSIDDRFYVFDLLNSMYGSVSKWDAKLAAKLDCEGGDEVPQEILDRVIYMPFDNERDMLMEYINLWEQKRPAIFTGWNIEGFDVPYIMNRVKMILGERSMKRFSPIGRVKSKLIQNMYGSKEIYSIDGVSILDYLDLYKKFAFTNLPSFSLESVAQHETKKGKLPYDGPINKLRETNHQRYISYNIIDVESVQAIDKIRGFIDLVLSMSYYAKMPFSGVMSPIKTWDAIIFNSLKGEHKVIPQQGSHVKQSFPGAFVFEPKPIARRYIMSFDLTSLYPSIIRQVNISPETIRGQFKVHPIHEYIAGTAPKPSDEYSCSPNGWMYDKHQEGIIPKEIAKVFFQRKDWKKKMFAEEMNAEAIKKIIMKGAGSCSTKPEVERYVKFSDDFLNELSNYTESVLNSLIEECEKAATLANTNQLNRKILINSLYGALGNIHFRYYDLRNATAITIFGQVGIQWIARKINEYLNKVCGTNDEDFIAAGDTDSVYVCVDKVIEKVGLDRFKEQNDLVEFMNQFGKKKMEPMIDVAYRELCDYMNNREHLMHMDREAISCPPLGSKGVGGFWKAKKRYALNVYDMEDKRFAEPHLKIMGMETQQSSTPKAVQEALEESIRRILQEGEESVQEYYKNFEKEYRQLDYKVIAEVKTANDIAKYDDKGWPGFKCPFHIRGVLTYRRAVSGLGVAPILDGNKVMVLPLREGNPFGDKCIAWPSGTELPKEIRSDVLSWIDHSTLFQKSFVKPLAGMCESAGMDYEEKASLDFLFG
Assay: Counter-screen against bacteriophage T4 DNA polymerase
Assay type: biochemical
Settings: for % inhibition T4 10' 2.5 / % inhibition T4 10' 5 / % inhibition T4 10' 10 / % inhibition T4 10' 20 / % inhibition T4 10' 40 / % inhibition T4 10' 80: read at 10'; for % inhibition T4 70' 2.5 / % inhibition T4 70' 5 / % inhibition T4 70' 10 / % inhibition T4 70' 20 / % inhibition T4 70' 40 / % inhibition T4 70' 80: read at 70'; for % inhibition T4 130' 2.5 / % inhibition T4 130' 5 / % inhibition T4 130' 10 / % inhibition T4 130' 20 / % inhibition T4 130' 40 / % inhibition T4 130' 80: read at 130'; for % inhibition T4 40' 2.5 / % inhibition T4 40' 5 / % inhibition T4 40' 10 / % inhibition T4 40' 20 / % inhibition T4 40' 40 / % inhibition T4 40' 80: read at 40'; for % inhibition T4 90' 2.5 / % inhibition T4 90' 5 / % inhibition T4 90' 10 / % inhibition T4 90' 20 / % inhibition T4 90' 40 / % inhibition T4 90' 80: read at 90'; for % inhibition T4 180' 2.5 / % inhibition T4 180' 5 / % inhibition T4 180' 10 / % inhibition T4 180' 20 / % inhibition T4 180' 40 / % inhibition T4 180' 80: read at 180'
How it was run: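 IC50 values come from dose-response testing of each compound against T4 DNA polymerase. This B-family polymerase was purified in-house and used as the counter-screen.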

Compound: Cc1cc2[nH]c(C(=O)Nc3ccc(F)cc3)c(CN3CCOCC3)c2s1 [Molecule 60, Fc1ccc(cc1)NC(=O)c1[nH]c2c(c1CN1CCOCC1)sc(c2)C]
- % inhibition T4 10' 2.5 (DRC-1, concentration 2.5): 1.711%
- % inhibition T4 10' 5 (DRC-1, concentration 5): 9.215%
- % inhibition T4 10' 10 (DRC-1, concentration 10): 21.452%
- % inhibition T4 10' 20 (DRC-1, concentration 20): 34.4714%
- % inhibition T4 10' 40 (DRC-1, concentration 40): 38.1099%
- % inhibition T4 10' 80 (DRC-1, concentration 80): 40.6852%
- % inhibition T4 70' 2.5 (DRC-1, concentration 2.5): 0.0854%
- % inhibition T4 70' 5 (DRC-1, concentration 5): 3.336%
- % inhibition T4 70' 10 (DRC-1, concentration 10): 13.8719%
- % inhibition T4 70' 20 (DRC-1, concentration 20): 20.2889%
- % inhibition T4 70' 40 (DRC-1, concentration 40): 27.4388%
- % inhibition T4 70' 80 (DRC-1, concentration 80): 27.0179%
- % inhibition T4 130' 2.5 (DRC-1, concentration 2.5): -1.799%
- % inhibition T4 130' 5 (DRC-1, concentration 5): 0.5371%
- % inhibition T4 130' 10 (DRC-1, concentration 10): 9.245%
- % inhibition T4 130' 20 (DRC-1, concentration 20): 15.4607%
- % inhibition T4 130' 40 (DRC-1, concentration 40): 21.1797%
- % inhibition T4 130' 80 (DRC-1, concentration 80): 22.3923%
- % inhibition T4 10' 2.5 (DRC-2, concentration 2.5): 5.28%
- % inhibition T4 10' 5 (DRC-2, concentration 5): 2.77%
- % inhibition T4 10' 10 (DRC-2, concentration 10): 13%
- % inhibition T4 10' 20 (DRC-2, concentration 20): 21%
- % inhibition T4 10' 40 (DRC-2, concentration 40): 25%
- % inhibition T4 10' 80 (DRC-2, concentration 80): 25%
- % inhibition T4 40' 2.5 (DRC-2, concentration 2.5): 3.64%
- % inhibition T4 40' 5 (DRC-2, concentration 5): 2.11%
- % inhibition T4 40' 10 (DRC-2, concentration 10): 12%
- % inhibition T4 40' 20 (DRC-2, concentration 20): 21%
- % inhibition T4 40' 40 (DRC-2, concentration 40): 26%
- % inhibition T4 40' 80 (DRC-2, concentration 80): 27%
- % inhibition T4 90' 2.5 (DRC-2, concentration 2.5): 4%
- % inhibition T4 90' 5 (DRC-2, concentration 5): 2.34%
- % inhibition T4 90' 10 (DRC-2, concentration 10): 12%
- % inhibition T4 90' 20 (DRC-2, concentration 20): 19%
- % inhibition T4 90' 40 (DRC-2, concentration 40): 24%
- % inhibition T4 90' 80 (DRC-2, concentration 80): 25%
- % inhibition T4 180' 2.5 (DRC-2, concentration 2.5): -1.07%
- % inhibition T4 180' 5 (DRC-2, concentration 5): -2.8%
- % inhibition T4 180' 10 (DRC-2, concentration 10): 6%
- % inhibition T4 180' 20 (DRC-2, concentration 20): 13%
- % inhibition T4 180' 40 (DRC-2, concentration 40): 20%
- % inhibition T4 180' 80 (DRC-2, concentration 80): 23%

Compound: Cc1ccc(C)n1-c1ccc(C(=O)NNC(=O)c2ccc3nccnc3c2)cc1 [Molecule 53, O=C(c1ccc(cc1)n1c(C)ccc1C)NNC(=O)c1ccc2c(c1)nccn2]
- % inhibition T4 10' (DRC-2, concentration 2.5): 15%
- % inhibition T4 10' (DRC-2, concentration 5): 24%
- % inhibition T4 10' (DRC-2, concentration 10): 29%
- % inhibition T4 10' (DRC-2, concentration 20): 31%
- % inhibition T4 10' (DRC-2, concentration 40): 29%
- % inhibition T4 10' (DRC-2, concentration 80): 38%
- % inhibition T4 40' (DRC-2, concentration 2.5): 15%
- % inhibition T4 40' (DRC-2, concentration 5): 24%
- % inhibition T4 40' (DRC-2, concentration 10): 29%
- % inhibition T4 40' (DRC-2, concentration 20): 31%
- % inhibition T4 40' (DRC-2, concentration 40): 29%
- % inhibition T4 40' (DRC-2, concentration 80): 38%
- % inhibition T4 90' (DRC-2, concentration 5): 22%
- % inhibition T4 90' (DRC-2, concentration 20): 29%
- % inhibition T4 90' (DRC-2, concentration 40): 29%
- % inhibition T4 180' (DRC-2, concentration 10): 22%
- % inhibition T4 180' (DRC-2, concentration 20): 24%

Compound: O=C1CSC2=NC3=C(CCc4ccccc43)C(c3cccs3)N12 (centres unmarked) [Molecule 59, O=C1CSC2=NC3=C(C(N12)c1cccs1)CCc1c3cccc1]
- % inhibition T4 10' 2.5 (DRC-1, concentration 2.5): 10.0127%
- % inhibition T4 10' 5 (DRC-1, concentration 5): 9.284%
- % inhibition T4 10' 10 (DRC-1, concentration 10): 14.9012%
- % inhibition T4 10' 20 (DRC-1, concentration 20): 17.5613%
- % inhibition T4 10' 40 (DRC-1, concentration 40): 23.9437%
- % inhibition T4 10' 80 (DRC-1, concentration 80): 22.8817%
- % inhibition T4 70' 2.5 (DRC-1, concentration 2.5): 9.951%
- % inhibition T4 70' 5 (DRC-1, concentration 5): 10.6029%
- % inhibition T4 70' 10 (DRC-1, concentration 10): 14.1389%
- % inhibition T4 70' 20 (DRC-1, concentration 20): 13.8668%
- % inhibition T4 70' 40 (DRC-1, concentration 40): 19.0347%
- % inhibition T4 70' 80 (DRC-1, concentration 80): 18.0959%
- % inhibition T4 130' 2.5 (DRC-1, concentration 2.5): 7.352%
- % inhibition T4 130' 5 (DRC-1, concentration 5): 7.713%
- % inhibition T4 130' 10 (DRC-1, concentration 10): 10.7499%
- % inhibition T4 130' 20 (DRC-1, concentration 20): 9.8688%
- % inhibition T4 130' 40 (DRC-1, concentration 40): 15.3496%
- % inhibition T4 130' 80 (DRC-1, concentration 80): 16.7896%
- % inhibition T4 10' 2.5 (DRC-2, concentration 2.5): 31%
- % inhibition T4 10' 5 (DRC-2, concentration 5): 18%
- % inhibition T4 10' 10 (DRC-2, concentration 10): 6.37%
- % inhibition T4 10' 20 (DRC-2, concentration 20): 8%
- % inhibition T4 10' 40 (DRC-2, concentration 40): 6%
- % inhibition T4 10' 80 (DRC-2, concentration 80): 11%
- % inhibition T4 40' 2.5 (DRC-2, concentration 2.5): 31%
- % inhibition T4 40' 5 (DRC-2, concentration 5): 18%
- % inhibition T4 40' 10 (DRC-2, concentration 10): 6.37%
- % inhibition T4 40' 20 (DRC-2, concentration 20): 8%
- % inhibition T4 40' 40 (DRC-2, concentration 40): 6%
- % inhibition T4 40' 80 (DRC-2, concentration 80): 11%
- % inhibition T4 90' 2.5 (DRC-2, concentration 2.5): 30%
- % inhibition T4 90' 5 (DRC-2, concentration 5): 18%
- % inhibition T4 90' 10 (DRC-2, concentration 10): 8%
- % inhibition T4 90' 20 (DRC-2, concentration 20): 8%
- % inhibition T4 90' 40 (DRC-2, concentration 40): 6.37%
- % inhibition T4 90' 80 (DRC-2, concentration 80): 11%
- % inhibition T4 180' 2.5 (DRC-2, concentration 2.5): 24%
- % inhibition T4 180' 5 (DRC-2, concentration 5): 15%
- % inhibition T4 180' 10 (DRC-2, concentration 10): 5%
- % inhibition T4 180' 20 (DRC-2, concentration 20): 4%
- % inhibition T4 180' 40 (DRC-2, concentration 40): 5.53%
- % inhibition T4 180' 80 (DRC-2, concentration 80): 9%
